“Also recorded” adds a separate entry of the source.

One assay has as its target T1, PP2Cβ (Bos taurus, UniProt O62830).
T1 construct: inferred from the Ni-NTA purification; made in house; host or cells: E. coli
T1 sequence (O62830 1-484): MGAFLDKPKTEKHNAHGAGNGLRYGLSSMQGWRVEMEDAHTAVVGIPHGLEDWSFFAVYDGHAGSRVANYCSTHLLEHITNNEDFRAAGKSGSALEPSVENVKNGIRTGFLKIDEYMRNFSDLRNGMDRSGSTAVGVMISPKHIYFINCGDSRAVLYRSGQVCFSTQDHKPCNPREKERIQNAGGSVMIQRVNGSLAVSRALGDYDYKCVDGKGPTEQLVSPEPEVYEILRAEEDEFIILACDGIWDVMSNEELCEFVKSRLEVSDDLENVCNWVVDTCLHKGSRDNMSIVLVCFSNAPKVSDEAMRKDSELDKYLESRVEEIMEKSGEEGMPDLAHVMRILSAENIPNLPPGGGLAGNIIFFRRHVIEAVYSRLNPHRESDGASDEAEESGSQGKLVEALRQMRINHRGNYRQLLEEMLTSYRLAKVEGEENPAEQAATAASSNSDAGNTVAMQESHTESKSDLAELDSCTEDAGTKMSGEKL
Description: Dephosphorylation of phospho-BAD by PP2Cβ, Mg2+-dependence. The assay is classed as biochemical, bovine. On the procedure:
Dephosphorylation of phospho-BAD by PP2C is assayed in vitro using recombinant BAD (Lizcano, J. M., Morrice, N. and Cohen, P. (2000) Regulation of Bad by cAMP-dependent protein kinase is mediated via phosphorylation of a novel site, Ser^155. Biochem. J. Vol: 349, 547-557) kindly provided by Sir Philip Cohen, Dundee, UK. cDNA encoding PP2Cβ from bovine brain was expressed in E. Coli and purified using Ni-NTA-Sepharose. (J. Neurosci. Res. 51, 328-338 (1998) Protein phosphatase type-2C isozymes present in vertebrate retinae: purification, characterization, and localization in photoreceptors.)
Incubations were carried out for 30 min at 37° C. The reaction mixture (12 μl) contained 12 μg BAD (GST-fusion protein) (Lizcano et al. (2000) Biochem. J. 349, 547-557), 0.55 μg PKA (Sigma), 1 μM ATP, 15 μCi [γ-^32P]ATP, 5 mM MgCl2 and 25 mM Tris/HCl pH 7.5. After incubation at 37° C. for 30 min, hot and cold ATP were removed by centrisep centrifugation columns. […]
Dephosphorylation of [^32P]BAD depends on the time of incubating PP2Cβ together with the substrate phospho-BAD which is cleaved to give phosphate and BAD. The concentration of [^32P]BAD is measured in this assay, therefore intensive spots on the X-ray sensitive film represent high concentrations of [^32P]BAD, in other words low activity of the enzyme PP2Cβ.

For the next assay, the system named is PP2C. Conditions: cited from earlier work.

Take `[Mg+2]` [Mg^2+]: the “Effect of Mg2+ ions on enzymatic activity of PP2C (dephosphorylation of BAD)” value on PP2Cβ was “requires the presence of Mg^2+-ions; also recorded: increases the enzymatic activity”.
As for `C=C1[C@@H](O)[C@@H]2O[C@]3(CC[C@H](/C=C/[C@@H](C)[C@@H]4CC(C)=C[C@@]5(O[C@H](C[C@@](C)(O)C(=O)O)CC[C@H]5O)O4)O3)CC[C@H]2O[C@@H]1[C@@H](O)C[C@H](C)[C@H]1O[C@@]2(CCCCO2)CC[C@H]1C` [okadaic acid], the “Sensitivity of PP2C activity to inhibitor” value with PP2C is on record as “not sensitive”.
